Measurements as given in PubChem BioAssay AID192 (DTP/NCI, 2004).
Toxic doses and inconclusive results are not listed.

Tested on: BDF1 mice, B16 melanoma ip, median survival T/C
Test: NCI In Vivo Anticancer Drug Screen. Data for tumor model B16 Melanoma (intraperitoneal) in B6D2F1 (BDF1) mice
Conditions: endpoint: median survival time, higher = longer survival
Procedure, shortened: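 Survival or tumor size is measured after treatment of tumor-bearing mice and normalised to the vehicle-treated control group.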

[1] = dose: 50.0 mg/kg/injection, schedule: Q01DX009 (ip), vehicle: saline with Tween-80
[2] = dose: 100.0 mg/kg/injection, schedule: Q01DX009 (ip), vehicle: saline with Tween-80
[3] = dose: 25.0 mg/kg/injection, schedule: Q01DX009 (ip), vehicle: Klucel (hydroxypropylcellulose) (HPC)
[4] = dose: 50.0 mg/kg/injection, schedule: Q01DX009 (ip), vehicle: Klucel (hydroxypropylcellulose) (HPC)
[5] = dose: 100.0 mg/kg/injection, schedule: Q01DX009 (ip), vehicle: Klucel (hydroxypropylcellulose) (HPC)
[6] = dose: 12.5 mg/kg/injection, schedule: Q01DX009 (ip), vehicle: saline
[7] = dose: 25.0 mg/kg/injection, schedule: Q01DX009 (ip), vehicle: saline
[8] = dose: 50.0 mg/kg/injection, schedule: Q01DX009 (ip), vehicle: saline

Structure (SMILES): O=C(O)CCN1C(=O)c2ccccc2C1=O
- T/C [1]: 102 % of control
- T/C [2]: 95 % of control
- T/C (dose: 200.0 mg/kg/injection, schedule: Q01DX009 (ip), vehicle: saline with Tween-80): 90 % of control

Structure (SMILES): [O-][n+]1c(CCl)nc2cccc3c2c1-c1ccccc1-3
- T/C (dose: 25.0 mg/kg/injection, schedule: Q01DX009 (ip), vehicle: saline with Tween-80): 101 % of control
- T/C [1]: 96 % of control
- T/C [2]: 90 % of control

Structure (SMILES): CNC(=O)NCc1ccc(C(=O)NC(C)C)cc1
- T/C [3]: 111 % of control
- T/C [4]: 98 % of control
- T/C [5]: 99 % of control
- T/C (dose: 200.0 mg/kg/injection, schedule: Q01DX009 (ip), vehicle: Klucel (hydroxypropylcellulose) (HPC)): 101 % of control
- T/C (dose: 400.0 mg/kg/injection, schedule: Q01DX009 (ip), vehicle: Klucel (hydroxypropylcellulose) (HPC)): 101 % of control

Structure (SMILES): CC(C)(C)c1cc([N+](=O)[O-])cc(C(C)(C)C)c1O
- T/C [3]: 95 % of control
- T/C [4]: 93 % of control
- T/C [5]: 95 % of control

Structure (SMILES): CC(C)CCC[C@@H](C)[C@H]1CC[C@H]2[C@@H]3CC=C4C[C@@H](OC(=O)Cc5ccc(N(CCCl)CCCl)cc5)CC[C@]4(C)[C@H]3CC[C@]12C
- T/C (dose: 50.0 mg/kg/injection, schedule: Q01DX009 (oral), vehicle: saline): 108 % of control
- T/C (dose: 100.0 mg/kg/injection, schedule: Q01DX009 (oral), vehicle: saline): 104 % of control
- T/C (dose: 200.0 mg/kg/injection, schedule: Q01DX009 (oral), vehicle: saline): 110 % of control
- T/C (dose: 400.0 mg/kg/injection, schedule: Q01DX009 (oral), vehicle: saline): 104 % of control
- T/C (dose: 800.0 mg/kg/injection, schedule: Q01DX009 (oral), vehicle: saline): 110 % of control

Structure (SMILES): O=[N+]([O-])c1cccc(N=Cc2ccccc2)c1
- T/C (dose: 66.0 mg/kg/injection, schedule: Q01DX009 (ip), vehicle: Klucel (hydroxypropylcellulose) (HPC)): 102 % of control
- T/C (dose: 150.0 mg/kg/injection, schedule: Q01DX009 (ip), vehicle: Klucel (hydroxypropylcellulose) (HPC)): 122 % of control

Structure (SMILES): c1ccc2c(CNC3CCCCC3)c[nH]c2c1
- T/C [3]: 89 % of control
- T/C [4]: 97 % of control
- T/C (dose: 100.0 mg/kg/injection, schedule: Q04DX003 (ip), vehicle: Klucel (hydroxypropylcellulose) (HPC)): 92 % of control

Structure (SMILES): OCC1(CO)COC2(CCCCC2)N1
- T/C [6]: 110 % of control
- T/C [7]: 116 % of control
- T/C [8]: 109 % of control
- T/C (dose: 100.0 mg/kg/injection, schedule: Q01DX009 (ip), vehicle: saline): 103 % of control
- T/C (dose: 200.0 mg/kg/injection, schedule: Q01DX009 (ip), vehicle: saline): 112 % of control
- T/C (dose: 400.0 mg/kg/injection, schedule: Q01DX009 (ip), vehicle: saline): 108 % of control

Structure (SMILES): COc1ccc(CC2C(=O)NC(C)C(=O)N(C)C3Cc4ccc(cc4)Oc4cc(ccc4O)CC(C(=O)NC(C)C(=O)NC(C)C(=O)N2C)N(C)C3=O)cc1 (stereo not drawn)
- T/C (dose: 0.25 mg/kg/injection, schedule: Q01DX009 (ip), vehicle: saline with Tween-80): 117 % of control
- T/C (dose: 0.5 mg/kg/injection, schedule: Q01DX009 (ip), vehicle: saline with Tween-80): 122 % of control
- T/C (dose: 2.0 mg/kg/injection, schedule: Q01DX009 (ip), vehicle: saline with Tween-80): 152 % of control
- T/C (dose: 4.0 mg/kg/injection, schedule: Q01DX009 (ip), vehicle: saline with Tween-80): 175 % of control
- T/C (dose: 8.0 mg/kg/injection, schedule: Q01DX009 (ip), vehicle: saline with Tween-80): 154 % of control

Structure (SMILES): C[N+](C)(C)C
- T/C (dose: 0.37 mg/kg/injection, schedule: Q01DX009 (ip), vehicle: saline): 112 % of control
- T/C (dose: 1.5 mg/kg/injection, schedule: Q01DX009 (ip), vehicle: saline): 109 % of control
- T/C [6]: 95 % of control

Structure (SMILES): c1cc2n(n1)CCN2
- T/C [6]: 102 % of control
- T/C (dose: 18.75 mg/kg/injection, schedule: Q01DX009 (ip), vehicle: saline): 116 % of control
- T/C [7]: 102 % of control
- T/C (dose: 37.5 mg/kg/injection, schedule: Q01DX009 (ip), vehicle: saline): 100 % of control
- T/C [8]: 106 % of control
- T/C (dose: 75.0 mg/kg/injection, schedule: Q01DX009 (ip), vehicle: saline): 93 % of control
- T/C (dose: 150.0 mg/kg/injection, schedule: Q01DX009 (ip), vehicle: saline): 106 % of control
- T/C (dose: 200.0 mg/kg/injection, schedule: Q04DX003 (ip), vehicle: saline with Tween-80): 108 % of control
- T/C (dose: 400.0 mg/kg/injection, schedule: Q04DX003 (ip), vehicle: saline with Tween-80): 108 % of control

Structure (SMILES): C/C=C/C(=O)NCC(C(C)C)/[N+]([O-])=N/O (stereo not drawn)
- T/C (dose: 6.25 mg/kg/injection, schedule: Q01DX009 (ip), vehicle: saline): 100 % of control
- T/C [6]: 104 % of control
- T/C [7]: 100 % of control

Structure (SMILES): N#CC(=C1C=CC(=NO)C=C1)c1ccccc1
- T/C (dose: 12.5 mg/kg/injection, schedule: Q01DX009 (ip), vehicle: Klucel (hydroxypropylcellulose) (HPC)): 100 % of control
- T/C [4]: 112 % of control
- T/C [5]: 103 % of control
